Consider seven compounds from patent publication US11478476B2 (CONTERA PHARMA APS, priority 2014, dated 2022).

Some results are limits rather than exact numbers.

For data set [1] the following is noted: cited from earlier work.
Data set [2] has as its target T1, human recombinant 5-HT1A receptors (Homo sapiens, UniProt P08908).
T1 sequence (P08908 1-422): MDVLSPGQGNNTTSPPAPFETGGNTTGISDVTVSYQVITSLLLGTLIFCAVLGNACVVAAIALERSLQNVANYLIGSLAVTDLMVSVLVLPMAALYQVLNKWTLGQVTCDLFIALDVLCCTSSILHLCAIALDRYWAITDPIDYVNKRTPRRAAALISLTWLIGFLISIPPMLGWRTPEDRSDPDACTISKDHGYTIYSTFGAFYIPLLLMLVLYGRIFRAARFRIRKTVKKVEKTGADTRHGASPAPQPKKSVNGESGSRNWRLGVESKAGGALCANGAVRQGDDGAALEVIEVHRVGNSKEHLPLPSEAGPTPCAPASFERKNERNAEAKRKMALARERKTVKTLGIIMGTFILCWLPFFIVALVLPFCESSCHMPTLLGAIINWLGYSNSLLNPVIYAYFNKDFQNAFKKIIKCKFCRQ
The following applies: cited from earlier work; for Ki: nM printed, table head has no unit.

Data set [3] addresses T2, human recombinant dopamine D3 receptor (Homo sapiens, UniProt P35462). As to conditions: saturating concentrations of dopamine; read-out: D3 efficacy IC50 ± SEM; cited from earlier work.
Data set [4] concerns the target T3, human recombinant dopamine D2 receptor (Homo sapiens, UniProt P14416). As to conditions: read-out: D2 affinity Ki ± SEM; cited from earlier work.
Data set [5] concerns the target T4, human recombinant dopamine D4 receptor (Homo sapiens, UniProt P21917).
T4 sequence (P21917 1-419): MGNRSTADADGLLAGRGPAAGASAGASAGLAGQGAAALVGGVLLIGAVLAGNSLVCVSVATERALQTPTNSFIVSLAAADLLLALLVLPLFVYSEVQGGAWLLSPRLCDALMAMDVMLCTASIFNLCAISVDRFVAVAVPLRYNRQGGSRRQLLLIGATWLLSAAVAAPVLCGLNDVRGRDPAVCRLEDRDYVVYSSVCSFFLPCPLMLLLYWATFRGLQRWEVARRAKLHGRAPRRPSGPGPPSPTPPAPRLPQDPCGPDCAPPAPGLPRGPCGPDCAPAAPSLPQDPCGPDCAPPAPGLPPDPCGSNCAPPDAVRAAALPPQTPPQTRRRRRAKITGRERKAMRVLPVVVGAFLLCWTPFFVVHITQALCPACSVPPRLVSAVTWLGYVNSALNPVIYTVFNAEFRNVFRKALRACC
The following applies: saturating concentrations of dopamine; read-out: D4 efficacy IC50 ± SEM; cited from earlier work.

Data set [6] has as its target T3, human recombinant dopamine D2 receptor. The following applies: saturating concentrations of dopamine; read-out: D2 efficacy IC50 ± SEM; cited from earlier work.
For data set [7], the target named is T4, human recombinant dopamine D4 receptor. The following applies: read-out: D4 affinity Ki ± SEM; cited from earlier work.
Data set [8] concerns the target T2, human recombinant dopamine D3 receptor. As to conditions: read-out: D3 affinity Ki ± SEM; cited from earlier work.
The test system of another data set is D2 receptors. As to conditions: oral buspirone; cited from earlier work.
For data set [9] the following is noted: oral administration of buspirone, human volunteers; analyte = label (6-OH-Busp: total, both enantiomers); cited from earlier work.
For data set [10] the following is noted: after administration of radiolabeled buspirone; cited from earlier work.
The subject of data set [11] is Parkinson's disease patients. The following applies: cited from earlier work.
For data set [12], the system named is L-DOPA induced dyskinesia (LID) model rats. Nature of the data set: L-DOPA induced AIMs in 6-OHDA lesioned LID model rats. It is filed as in vivo, rat. The text has this: Animals: 80 experimentally-naïve, male, 9 weeks old Sprague-Dawley rats at body weight of 200 to 250 g arrive at the laboratory at least 1 week prior to behavioural testing. Rats were housed in groups of n=2/cage. Animals had ad libitum access to standard rodent chow and water. Animal housing and testing rooms were maintained under controlled environmental conditions and were within close proximity of each other. Animal housing rooms were on a 12-hour light-dark cycle with lights on at 6:00 AM and maintained at 70° F./21° C. (range: 68-72° F./20-22° C.) with a humidity range of 20-40%. Testing rooms were maintained at 68-72° F. with a humidity range of 20-40%. DA (dopamine)-denervating lesions were performed by unilateral injection of 6-OHDA in the ascending nigrostriatal pathway. Rats were anesthetized with pentobarbital sodium 40 mg/kg (i.p.) and positioned in a stereotactic frame. 6-OHDA was injected into the right ascending DA bundle at the following coordinates relative to bregma and dural surface: A (anterior-posterior), L (lateral), V (dorsoventral): A −1.8, L −2.0, V −8.6, tooth bar 0.0.
The neurotoxin injections were performed at a rate of 1 ul/min, and the injection cannula is left in place for an additional 2-3 min thereafter. Two weeks after surgery, contralateral full body turns were recorded over 30 min, following s.c. injection of 0.5 mg/kg of apomorphine sulfate. The animals were placed in plastic Perspex bowls (30 cm in diameter) and the rotational behavior (360° turns) is recorded by an automated rotometer for […] after the s.c. injection of 0.5 mg/kg of apomorphine sulfate. Apomorphine (0.5 mg/kg, s.c.) induced contralateral rotation in unilateral 6-OHDA lesioned rats. 73 rats with rotations ≥180/30 min, indicating >90% DA lesion in nigrostriatal pathway, were chosen as the PD model rats for chronic L-DOPA treatment.
Starting one day after the apomorphine-induced rotation test, 6-OHDA-lesioned rats were treated with daily L-DOPA (Sigma-Aldrich, Germany) (8 mg/kg plus benserazide 15 mg/kg, s.c.) for 21 days. Rats were placed individually in transparent plastic cages without bedding material and scored every 20 min following the injection of L-DOPA for the entire time course of dyskinesias (120 min). The AIMs were classified into four subtypes according to their topographic distributions such as Locomotive, Forelimb, Axial and Orolingual behaviors. The severity of each AIM subtype was assessed by using scores from 0 to 4 (1: occasional, i.e. present less than 50% of the time; 2: frequent, i.e. present more than 50% of the time; 3: continuous, but interrupted by strong sensory stimuli; 4: continuous, not interrupted by strong sensory stimuli). In this study, rats with an AIMs≥28 were considered highly dyskinetic, while rats with an AIMs<28 either low or none-dyskinetic.
After chronic L-DOPA treatment on PD rats for 21 days, 42 LID model rats (348 g˜501 g, 15 weeks old) were successfully created with the criteria of total AIM scores (Lo+Li+AX+OI)≥28 points.
AIMs ratings were performed by an investigator who was kept unaware of the pharmacological treatment administered to each rat (experimentally blinded). In order to quantify the severity of the AIMs, rats were observed individually in their standard cages every 20th minute at 20-180 min after an injection of I-DOPA. The AIM's were classified into four subtypes:
Each of the four subtypes are scored on a severity scale from 0 to 4, where 0=absent, 1=present during less than half of the observation time, 2=present for more than half of the observation time, 3=present all the time but suppressible by external stimuli, and 4=present all the time and not suppressible by external stimuli. Axial, limb and orolingual AIMs are found to be modulated in a similar way by all the tested substances.
Rats were tested for AIMs using the sum of locomotive (LO) oraxial (AX), limb (LI), and orolingual (OL) AIM scores per testing session for statistical analyses. […]

The subject of a further data set is dopamine D3 receptors. The following applies: oral buspirone at therapeutically relevant doses; cited from earlier work.
The test system of a further data set is PD model rats. Nature of the data set: Stepping test (adjusting steps) in PD model rats. It is filed as in vivo, rat. As to conditions: 10 mg/kg, sc; PD model rats. How it is done: The stepping test (Schallert et al., 1992) was performed as described by Kirik et al., 2001 with little modifications. Briefly, the rat was held by the experimenter fixing its hindlimbs with one hand and the forelimb not to be monitored with the other, while the unrestrained forepaw was touching the table. The number of adjusting steps was counted, while the rat was moved sideways along the table surface (90 cm in 5 s), in the forehand and backhand direction, for both forelimbs, and the average of the steps in the two directions is considered.
30 male PD model rats were used for adjusting steps test with the following groups: • 1. Vehicle 1+Vehicle 2 (n=7) • 2. Vehicle 1+L-DOPA (10 mg/kg, sc) (n=7) • 3. 6-OH-Busp (3 mg/kg, sc)+Vehicle 2 (n=8) • 4. 6-OH-Busp (3 mg/kg, sc)+L-DOPA (10 mg/kg, sc)
The PD rats were handled for 3 consecutive days. Vehicle 1 or 6-OH-Busp will s.c. dosed 61 min before adjusting steps test. Vehicle 2 or L-DOPA/Benserazide dosed 60 min before adjusting steps test. On testing day, the rats were held by both hind limbs and the untested forepaw. The test forepaw was placed on a flat surface and dragged in the forehand direction for 90 cm distance over 5 s. The number of adjusting steps was counted for both paws in the backhand and forehand directions of movement. […] Data were analyzed and graphed by Graph Pad Prism 6.

T2 sequence (P35462 whole entry): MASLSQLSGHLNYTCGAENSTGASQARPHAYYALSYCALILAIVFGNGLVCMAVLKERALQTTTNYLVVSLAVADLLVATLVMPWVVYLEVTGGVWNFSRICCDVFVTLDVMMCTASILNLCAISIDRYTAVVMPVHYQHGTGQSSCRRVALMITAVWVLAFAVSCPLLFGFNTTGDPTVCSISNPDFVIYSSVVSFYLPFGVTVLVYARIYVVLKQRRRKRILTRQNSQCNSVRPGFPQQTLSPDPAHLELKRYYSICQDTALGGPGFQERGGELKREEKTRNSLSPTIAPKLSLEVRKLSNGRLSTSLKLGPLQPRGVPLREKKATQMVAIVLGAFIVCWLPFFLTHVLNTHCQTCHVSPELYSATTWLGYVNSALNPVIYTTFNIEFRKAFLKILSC
T3 sequence (P14416 whole entry): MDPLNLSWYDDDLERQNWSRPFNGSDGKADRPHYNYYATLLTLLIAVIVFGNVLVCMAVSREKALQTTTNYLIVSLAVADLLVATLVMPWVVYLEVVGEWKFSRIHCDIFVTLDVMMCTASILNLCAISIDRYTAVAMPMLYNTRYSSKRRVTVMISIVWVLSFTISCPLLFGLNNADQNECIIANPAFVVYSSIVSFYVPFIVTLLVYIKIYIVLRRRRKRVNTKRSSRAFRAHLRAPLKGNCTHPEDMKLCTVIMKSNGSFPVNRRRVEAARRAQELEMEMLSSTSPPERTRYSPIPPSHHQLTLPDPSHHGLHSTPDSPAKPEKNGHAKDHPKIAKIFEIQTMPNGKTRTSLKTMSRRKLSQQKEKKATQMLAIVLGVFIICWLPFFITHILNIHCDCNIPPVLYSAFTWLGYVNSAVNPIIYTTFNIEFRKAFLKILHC

With `c1cnc(N2CCNCC2)nc1` [1-PP, 1-(2-pyrimidinyl)-piperazine], in data set [1] (oral dosing of buspirone in rats), the “exposure (area under the concentration-time profile) of metabolite relative to parent compound” value is 49 fold. The IC50 – broadly, the point on the concentration scale where inhibition reaches its midpoint – in data set [2] was above 1000 nM.
Turning to `O=C1CC2(CCC(O)C2)CC(=O)N1CCCCN1CCN(c2ncccn2)CC1` (stereo not drawn) [3-OH-Busp], in data set [2], the IC50 is 652 nM; the Ki (commonly the dissociation constant of the complex between target and ligand, obtained from inhibition or displacement) was 326 nM.
In the case of `O=C1CC2(CCCC2)CC(=O)N1CCCCN1CCN(c2ncc(O)cn2)CC1` [5-OH-Busp], the half-maximal inhibitory concentration (IC50) is 930 ± 460 nM in data set [3], 1400 ± 820 nM in data set [5], 2600 ± 1300 nM in data set [6] and 928 nM in data set [2]. Besides, the Ki in data set [4] is 4010 ± 792 nM; in data set [2], 464 nM; in data set [7] it was 107 ± 44.8 nM; in data set [8], 261 ± 46 nM.
For the compound `O=C1CC2(CCCC2)CC(=O)N1CCCCN1CCN(c2ncccn2)CC1` [Buspirone, 8-[4-(4-pyrimidin-2-ylpiperazin-1-yl)butyl]-8-azaspiro[4.5]decane-7,9-dione, reference compound], the plasma half-life in [1] (rats) was 54 ± 24 min. The half-maximal inhibitory concentration (IC50) in data set [3] was 440 ± 180 nM. Further, the “in vivo blockade of D2 receptors (PET)” value with D2 receptors is on record as “did not cause blockade”. In [9], the AUC0-INF is 3.93 ngxh/ml and the Cmax (commonly the peak of the concentration-time curve) was 1.39 ng/mL. Also, the “unchanged buspirone as share of total radioactivity in human plasma” value in [10] is reported as “less than 2%”. In [11] (100 mg/day), the disability ratings result is on record as “significant worsening” and the dyskinesia result is listed as “reduced”. Besides, the “effects on Parkinson's disease or dyskinesia” value in data set [11] (10-60 mg/day) is “did not have any effects”. For the same compound, the IC50 in data set [5] is 350 ± 60 nM. In addition, the Ki in [7] was 29.2 ± 11.3 nM. Also, the “total AIMs of LID rats at time points” value in [12] (Example XII, 1 mg/kg s.c., 50, 70, 90, 110, 130, 150, 170 and 190 min, vs vehicle) is “significantly attenuated”. Moreover, in data set [12] (Example XII, buspirone 1 mg/kg s.c., 6-OH-Busp 0.3, 1 and 3 mg/kg s.c., vs vehicle), the “AUC of total AIMs from 10 min to 190 min” value is listed as “decreased”. For the same compound, the Ki in data set [8] is 98 ± 16 nM. In addition, the “in vivo blockade of dopamine D3 receptors (PET)” value in the data set with dopamine D3 receptors was “blocks”.
For the compound `CN1CC(=O)N=C1NC(=O)Nc1cccc(Cl)c1` [Fenobam, 1-(3-chlorophenyl)-3-(3-methyl-5-oxo-4H-imidazol-2-yl)urea, reference compound], the “AIMs of LID rats at any time points” value in data set [12] (Example XIV, 30 mg/kg, s.c. as printed) was “did not have significant effects”.
Regarding `N[C@@H](Cc1ccc(O)c(O)c1)C(=O)O` [L-DOPA, 3,4-dihydroxyphenylalanine, reference compound], the “number of adjusting steps” value in the data set on PD model rats is listed as “increased”.
In the case of `CN(C)CCc1c[nH]c2ccc(C[C@H]3COC(=O)N3)cc12` [Zolmitriptan, (S)-4-({3-[2-(dimethylamino)ethyl]-1H-indol-5-yl}methyl)-1,3-oxazolidin-2-one, reference compound], the “AIMs at any time points” value in data set [12] (Example XIII, 10 mg/kg s.c.) is “did not have any effects”.
